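Assay format: 96-well plates, 48-hour exposure. TGI: concentration producing complete growth inhibition.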
Tests used:
Assay in all cases: NCI tumour cell line growth inhibition, 48 h
786-0 renal = test system: 786-0 renal
A549 NSCLC = test system: A549 NSCLC
ACHN renal = test system: ACHN renal
CAKI-1 renal = test system: CAKI-1 renal
CCRF-CEM leukemia = test system: CCRF-CEM leukemia
COLO 205 colon = test system: COLO 205 colon
DU-145 prostate = test system: DU-145 prostate
EKVX NSCLC = test system: EKVX NSCLC
HCC-2998 colon = test system: HCC-2998 colon
HCT-116 colon = test system: HCT-116 colon
HCT-15 colon = test system: HCT-15 colon
HL-60(TB) leukemia = test system: HL-60(TB) leukemia
HOP-62 NSCLC = test system: HOP-62 NSCLC
HOP-92 NSCLC = test system: HOP-92 NSCLC
HS 578T breast = test system: HS 578T breast
HT29 colon = test system: HT29 colon
IGROV1 ovarian = test system: IGROV1 ovarian
K-562 leukemia = test system: K-562 leukemia
KM12 colon = test system: KM12 colon
LOX IMVI melanoma = test system: LOX IMVI melanoma
M14 melanoma = test system: M14 melanoma
MCF7 breast = test system: MCF7 breast
MDA-MB-231 breast = test system: MDA-MB-231 breast
MDA-MB-435 = test system: MDA-MB-435
MDA-N = test system: MDA-N
MOLT-4 leukemia = test system: MOLT-4 leukemia
NCI-H226 lung = test system: NCI-H226 lung
NCI-H23 lung = test system: NCI-H23 lung
NCI-H460 lung = test system: NCI-H460 lung
NCI-H522 lung = test system: NCI-H522 lung
NCI/ADR-RES ovarian = test system: NCI/ADR-RES ovarian
OVCAR-3 ovarian = test system: OVCAR-3 ovarian
OVCAR-4 ovarian = test system: OVCAR-4 ovarian
OVCAR-5 ovarian = test system: OVCAR-5 ovarian
OVCAR-8 ovarian = test system: OVCAR-8 ovarian
PC-3 prostate = test system: PC-3 prostate
RPMI-8226 leukemia = test system: RPMI-8226 leukemia
RXF 393 renal = test system: RXF 393 renal
SF-268 CNS = test system: SF-268 CNS
SF-295 CNS = test system: SF-295 CNS
SF-539 CNS = test system: SF-539 CNS
SK-MEL-2 melanoma = test system: SK-MEL-2 melanoma
SK-MEL-28 melanoma = test system: SK-MEL-28 melanoma
SK-MEL-5 melanoma = test system: SK-MEL-5 melanoma
SK-OV-3 ovarian = test system: SK-OV-3 ovarian
SN12C renal = test system: SN12C renal
SNB-19 CNS = test system: SNB-19 CNS
SNB-75 CNS = test system: SNB-75 CNS
SR leukemia = test system: SR leukemia
SW-620 colon = test system: SW-620 colon
T-47D breast = test system: T-47D breast
TK-10 renal = test system: TK-10 renal
U251 CNS = test system: U251 CNS
UACC-257 melanoma = test system: UACC-257 melanoma
UACC-62 melanoma = test system: UACC-62 melanoma
UO-31 renal = test system: UO-31 renal
A498 renal = test system: A498 renal
BT-549 breast = test system: BT-549 breast
MALME-3M melanoma = test system: MALME-3M melanoma

Q: What does the source list for `COc1ccc(Nc2nc3ccccc3nc2-c2cccs2)cc1OC`?
A: TGI (786-0 renal): > 10 µM; TGI (A549 NSCLC): > 10 µM; TGI (ACHN renal): > 10 µM; TGI (CAKI-1 renal): > 10 µM; TGI (CCRF-CEM leukemia): > 10 µM; TGI (COLO 205 colon): > 10 µM; TGI (DU-145 prostate): > 10 µM; TGI (EKVX NSCLC): > 10 µM; TGI (HCC-2998 colon): > 10 µM; TGI (HCT-116 colon): > 10 µM; TGI (HCT-15 colon): > 10 µM; TGI (HL-60(TB) leukemia): > 10 µM; TGI (HOP-62 NSCLC): > 10 µM; TGI (HOP-92 NSCLC): > 10 µM; TGI (HS 578T breast): > 10 µM; TGI (HT29 colon): > 10 µM; TGI (IGROV1 ovarian): > 10 µM; TGI (K-562 leukemia): > 10 µM; TGI (KM12 colon): > 10 µM; TGI (LOX IMVI melanoma): > 10 µM; TGI (M14 melanoma): > 10 µM; TGI (MCF7 breast): > 10 µM; TGI (MDA-MB-231 breast): > 10 µM; TGI (MDA-MB-435): > 10 µM; TGI (MDA-N): > 10 µM; TGI (MOLT-4 leukemia): > 10 µM; TGI (NCI-H226 lung): > 10 µM; TGI (NCI-H23 lung): > 10 µM; TGI (NCI-H460 lung): > 10 µM; TGI (NCI-H522 lung): > 10 µM; TGI (NCI/ADR-RES ovarian): > 10 µM; TGI (OVCAR-3 ovarian): > 10 µM; TGI (OVCAR-4 ovarian): > 10 µM; TGI (OVCAR-5 ovarian): > 10 µM; TGI (OVCAR-8 ovarian): > 10 µM; TGI (PC-3 prostate): > 10 µM; TGI (RPMI-8226 leukemia): > 10 µM; TGI (RXF 393 renal): > 10 µM; TGI (SF-268 CNS): > 10 µM; TGI (SF-295 CNS): > 10 µM; TGI (SF-539 CNS): > 10 µM; TGI (SK-MEL-2 melanoma): > 10 µM; TGI (SK-MEL-28 melanoma): > 10 µM; TGI (SK-MEL-5 melanoma): > 10 µM; TGI (SK-OV-3 ovarian): > 10 µM; TGI (SN12C renal): > 10 µM; TGI (SNB-19 CNS): > 10 µM; TGI (SNB-75 CNS): > 10 µM; TGI (SR leukemia): > 10 µM; TGI (SW-620 colon): > 10 µM; TGI (T-47D breast): > 10 µM; TGI (TK-10 renal): > 10 µM; TGI (U251 CNS): > 10 µM; TGI (UACC-257 melanoma): > 10 µM; TGI (UACC-62 melanoma): > 10 µM; TGI (UO-31 renal): > 10 µM

Q: For `CCN(CC)P(=O)(c1ccc2c(c1)OCCOCCOCCOCCO2)N(CC)CC`, which TGI (786-0 renal) is on record?
A: Its TGI is over 100 µM.

Q: And the TGI (A498 renal)?
A: The TGI was over 100 µM.

Q: What about the TGI (A549 NSCLC) of the same compound?
A: The TGI was over 100 µM.

Q: And the TGI (ACHN renal)?
A: Its TGI is over 100 µM.

Q: What about the TGI (BT-549 breast) of the same compound?
A: The TGI was over 100 µM.

Q: And the TGI (CAKI-1 renal)?
A: The TGI was over 100 µM.

Q: And the TGI (CCRF-CEM leukemia)?
A: Its TGI is over 100 µM.

Q: And the TGI (COLO 205 colon)?
A: The TGI was over 100 µM.

Q: And the TGI (DU-145 prostate)?
A: Its TGI is over 100 µM.

Q: What about the TGI (EKVX NSCLC) of the same compound?
A: The TGI was over 100 µM.

Q: What about the TGI (HCC-2998 colon) of the same compound?
A: Its TGI is over 100 µM.

Q: What about the TGI (HCT-116 colon) of the same compound?
A: The TGI was over 100 µM.

Q: And the TGI (HCT-15 colon)?
A: Its TGI is over 100 µM.

Q: What about the TGI (HL-60(TB) leukemia) of the same compound?
A: Its TGI is over 100 µM.

Q: What about the TGI (HOP-62 NSCLC) of the same compound?
A: Its TGI is over 100 µM.

Q: What about the TGI (HS 578T breast) of the same compound?
A: The TGI was over 100 µM.

Q: What about the TGI (IGROV1 ovarian) of the same compound?
A: Its TGI is over 100 µM.

Q: And the TGI (K-562 leukemia)?
A: The TGI was over 100 µM.

Q: What about the TGI (KM12 colon) of the same compound?
A: The TGI was over 100 µM.

Q: And the TGI (LOX IMVI melanoma)?
A: The TGI was over 100 µM.

Q: And the TGI (M14 melanoma)?
A: Its TGI is over 100 µM.

Q: What about the TGI (MALME-3M melanoma) of the same compound?
A: Its TGI is over 100 µM.

Q: What about the TGI (MCF7 breast) of the same compound?
A: The TGI was over 100 µM.

Q: And the TGI (MDA-MB-231 breast)?
A: The TGI was over 100 µM.

Q: And the TGI (MDA-MB-435)?
A: Its TGI is over 100 µM.

Q: What about the TGI (MDA-N) of the same compound?
A: Its TGI is over 100 µM.

Q: What about the TGI (MOLT-4 leukemia) of the same compound?
A: The TGI was over 100 µM.

Q: What about the TGI (NCI-H226 lung) of the same compound?
A: Its TGI is over 100 µM.

Q: And the TGI (NCI-H23 lung)?
A: The TGI was over 100 µM.

Q: What about the TGI (NCI-H460 lung) of the same compound?
A: Its TGI is over 100 µM.

Q: And the TGI (NCI-H522 lung)?
A: Its TGI is over 100 µM.

Q: And the TGI (OVCAR-8 ovarian)?
A: Its TGI is over 100 µM.

Q: What about the TGI (PC-3 prostate) of the same compound?
A: Its TGI is over 100 µM.

Q: And the TGI (RPMI-8226 leukemia)?
A: The TGI was over 100 µM.

Q: And the TGI (SF-268 CNS)?
A: Its TGI is over 100 µM.

Q: What about the TGI (SF-295 CNS) of the same compound?
A: The TGI was over 100 µM.

Q: What about the TGI (SF-539 CNS) of the same compound?
A: Its TGI is over 100 µM.

Q: And the TGI (SK-MEL-28 melanoma)?
A: The TGI was over 100 µM.

Q: What about the TGI (SK-MEL-5 melanoma) of the same compound?
A: The TGI was over 100 µM.

Q: What about the TGI (SK-OV-3 ovarian) of the same compound?
A: The TGI was over 100 µM.

Q: And the TGI (SN12C renal)?
A: The TGI was over 100 µM.

Q: And the TGI (SNB-19 CNS)?
A: The TGI was over 100 µM.

Q: And the TGI (SNB-75 CNS)?
A: Its TGI is over 100 µM.

Q: What about the TGI (SR leukemia) of the same compound?
A: Its TGI is over 100 µM.

Q: What about the TGI (SW-620 colon) of the same compound?
A: The TGI was over 100 µM.

Q: And the TGI (T-47D breast)?
A: The TGI was over 100 µM.

Q: And the TGI (TK-10 renal)?
A: Its TGI is over 100 µM.

Q: And the TGI (UACC-62 melanoma)?
A: Its TGI is over 100 µM.

Q: And the TGI (UO-31 renal)?
A: The TGI was over 100 µM.

— PubChem BioAssay (NCI)
